Patent publication EP0099194A2, “Novel benzamides” (BEECHAM GROUP PLC, priority 1982, dated 1984)

How the values were obtained:
Format in all cases: in vivo
[1] = system: 5-MDMT induced symptoms; test: Anti-5HT activity: inhibition of 5-MDMT induced symptoms in rats; conditions: Rat; for ED50: po
Experimental: [The procedure below names another organism; the source lists this organism under the same test.] (§1) Mice (♂ CD^-1 Charles Rine) are pretreated with the compounds 10 animals/group under investigation and 1 h later one group is injected with 10 mg/kg ip 5-methoxy-N,N-dimethyltryptamioe (Sigma). The symptoms of fore- paw tapping movements, head jerks and splayed limbs are scored: 1, present; O, absent, giving a maximum score of 3/mouse or 30/group. Results are expressed as the percentage inhibition compared to the group treated with 5-methoxy-N,N-dimethyl tryptamine alone. The dose of compound inhibiting the symptoms by 50% is determined graphically.

[2] = system: 5-MDMT induced symptoms; test: Anti-5HT activity: inhibition of 5-methoxy-N,N-dimethyltryptamine induced symptoms in mice; conditions: Mouse, p.o., pretreated 1 h before 10 mg/kg ip 5-methoxy-N,N-dimethyltryptamine, dose inhibiting symptoms by 50%; for ED50: po
Experimental: as §1

[3] = system: post-synaptic Dopamine (D.A.) receptors; test: Dopamine receptor blocking activity in the CNS: inhibition of apomorphine induced climbing; conditions: male CDl mice, p.o., apomorphine 1 mg/kg subcutaneous
Experimental: The test is based on that described by Protais, P., Constantin, J. and Schwartz J.C. (1976), Psychopharmacology, 50, 1-6.
When mice are given a dose of 1 mg/kg apomorphine and then placed in an enclosed environment, such as an inverted wire cage, they are seen to climb around the walls. This behavioural phenomenon is thought to be a consequence of the stimulation of post-synaptic Dopamine (D.A.) receptors in the nucleus accumbens. Inhibition of apomorphine induced climbing is therefore indicative of post-synaptic D.A. receptor blockade in the accumbens.
Groups of 10 male CDl mice, weighing 25-30 g were pre-treated orally with either graded doses of the test compound or vehicle, at appropriate time intervals before the subcutaneous administration of a sub-maximal dose of apomorphine (1 mg/kg). Immediately after the apomorphine injection the mice were placed in wire 'climbing cages' and each animal was scored for climbing behavour at 10 and 20 minutes post apomorphine as follows:- • Four paws on cage floor = O • Fore paws on cage wall = 1 • Four paws on cage wall = 2 […]

Row | Compound | ED50 [1] | ED50 [2] | further results
1 | 4-Amino-5-chloro-2-methoxy-N-[3-β-(8-cyclopropylmethyl-8-azabicyclo (3,2,1)octyl]benzamide [Example 3] |  |  | Anti 5-HT Activity Inhibition of 5-MDMT induced symptoms ([1]; at 10 mg/kg p.o.): 56% at 10; Anti 5-HT Activity Inhibition of 5-MDMT induced symptoms ED50 [2]: ED503 mg/kg
2 | COc1cc(NC(C)=O)c(Cl)cc1C(=O)N[C@@H]1C[C@H]2CC[C@@H](C1)N2CC(C)(C)C [Example 1, 4-Aoetylamino-5-chloro-2-methoxy-N-[3-β-(8-neopentyl-8-azabicyclo (3,2,1)octyl)]benzamide] | 10 mg/kg | 2.4 mg/kg | ED50 inhibition of apomorphine - induced climbing [3]: 4 mg/kg
3 | COc1cc(N)c(Cl)cc1C(=O)NC1CC2CCC(C1)N2CC(C)(C)C (stereo not drawn) [Example 2, 4-Amino-5-chloro-2-methoxy-N-[3-β-(8-neopentyl-8-azabicyclo (3,2,1)octyl)] benzamide] | 7.2 mg/kg | 0.2 mg/kg | 
4 | COc1cc(N)c(Cl)cc1C(=O)NC1CC2CCCC(C1)N2CC(C)(C)C (stereo not drawn) [Example 4, 4-Amino-5-chloro-2-mthoxy-N-[3-β-(9-neopentyl-9-azabicyclo (3,3,1)nonyl)]benzamide] | 6.2 mg/kg | 4.6 mg/kg | 
5 | COc1cc(N)c(Cl)cc1C(=O)NC1CC2CCC(C1)N2CCC(C)C (stereo not drawn) [Example 5, 4-Amino-5-chloro-2-methoxy-N-[3-β-(8-isopentyl-8-azabicyclo(3,2,1)octyl)] benzamide] |  | 8 mg/kg | 
6 | COc1cc(NC(C)=O)c(Cl)cc1C(=O)NC1CC2CCCC(C1)N2CC(C)(C)C (stereo not drawn) [Example 6] | 10 mg/kg |  | 
7 | COc1cc(N)c(Br)cc1C(=O)NC1CC2CCC(C1)N2CC(C)(C)C (stereo not drawn) [Example 7, 4-Amino-5-bromo-2-methoxy-N-[3-β-(8-neopentyl-8-azabicyclo (3,2,1)octyl) ]benzamide] |  | 4 mg/kg | 
